This assay concerns A549-NF-κB-SEAP reporter cells. Description: Inhibition of NF-κB-induced inflammation: […] NINA Instant Assay, TNF-α stimulated SEAP reporter. Type of assay: cell-based. Particulars: % inhibition classes. From the text: For the determination of anti-inflammatory activity of the compounds the […]® NINA Instant Assay from Cell Culture Service GmBH was used. This assay is based on […] recombinant A549-NF-κB-SEAP reporter cells preceded in 96-well flat bottom plates. As the transfected reportergen for SEAP (secreted embryonic alkaline phosphatase) is under transcriptional control of a NF-κB-responsive element, the expression of this reporter is activated upon stimulation with TNF-α. SEAP secretion into the culture supernatant can be detected by the chemiluminescent substrate CSPD®. Test compounds that inhibit the NF-κB activation show reduced SEAP activity and reduced luminescent readout.
Following 18 h of reactivation at 37° C., 5% CO2 and 90% relative humidity, the cells were incubated with 0.01 up to 100 μM of test compound for 4.5 h before stimulation with 2 ng/ml TNF-α. After stimulation with TNF-α for 22 h endogenous phosphatases were inactivated and CSPD® substrate was supplied for 40 min. SEAP activity then was quantified by measuring luminescence as relative light units (RLU) using a Tecan Ultra reader. Each data point was recorded in quadruplicates and EC50 values were calculated via fitting function and the Microsoft Excel Solver.

For the compound `N=C(NC(=O)c1coc(NC(=O)c2ccccc2OC(F)(F)F)n1)Nc1nc2ccccc2[nH]1` [compound 28], the “Biological activity (inhibition in the NF-κB inflammation assay)” value was “+++ (“+++” stands for 90-100% inhibition)”.

As for `COc1ccc(OC)c(N2CCC(c3nc(C(=O)N4CCN(c5cccc(C(F)(F)F)c5)CC4)cs3)CC2)c1` [compound 29], the “Biological activity (inhibition in the NF-κB inflammation assay)” value is reported as “++ (“++” means 80-90%)”. In the case of `O=C(Nc1nc(C(=O)N2CCN(c3cccc(C(F)(F)F)c3)CC2)cs1)c1ccccc1OC(F)(F)F` [compound 32], the “Biological activity (inhibition in the NF-κB inflammation assay)” value is given as “+++ (“+++” stands for 90-100% inhibition)”. The same measure for `O=C(CCC1CCCC1)Nc1nc(C(=O)N2CCN(c3cccc(C(F)(F)F)c3)CC2)cs1` [compound 33]: “+++ (“+++” stands for 90-100% inhibition)”.

Turning to `O=C(Nc1nc(C(=O)N2CCN(c3cccc(C(F)(F)F)c3)CC2)cs1)c1ccc(C(F)(F)F)c(F)c1` [compound 34], the “Biological activity (inhibition in the NF-κB inflammation assay)” value was “+++ (“+++” stands for 90-100% inhibition)”. The same measure for `O=C(c1csc(C2CCN(CCC(c3ccccc3)c3ccccc3)CC2)n1)N1CCN(c2cccc(C(F)(F)F)c2)CC1` [compound 35]: “+++ (“+++” stands for 90-100% inhibition)”; for `O=C(CCC1CCCC1)N1CCN(c2nc(C(=O)N3CCN(c4cccc(C(F)(F)F)c4)CC3)cs2)CC1` [compound 37]: “+++ (“+++” stands for 90-100% inhibition)”; for `COc1ccccc1C(=O)N1CCN(c2nc(C(=O)N3CCN(c4cccc(C(F)(F)F)c4)CC3)cs2)CC1` [compound 38]: “+++ (“+++” stands for 90-100% inhibition)”.

On to `O=C(c1csc(N2CCN(C(=O)c3ccccc3OC(F)(F)F)CC2)n1)N1CCN(c2cccc(C(F)(F)F)c2)CC1` [compound 39], for which the “Biological activity (inhibition in the NF-κB inflammation assay)” value is reported as “+++ (“+++” stands for 90-100% inhibition)”. To `O=C(Nc1nc(C(=O)N2CCN(c3ccc(Cl)c(Cl)c3)CC2)cs1)c1ccccc1OC(F)(F)F` [compound 41] belongs “+++ (“+++” stands for 90-100% inhibition)”; to `COc1ccccc1N1CCN(C(=O)c2csc(NC(=O)c3ccccc3OC(F)(F)F)n2)CC1` [compound 44], “++ (“++” means 80-90%)”; to `O=C(c1csc(C2CCN(C(=O)c3ccccc3OC(F)(F)F)CC2)n1)N1CCN(c2nc3ccccc3n2Cc2ccc(F)cc2)CC1` [compound 48], “+++ (“+++” stands for 90-100% inhibition)”. Regarding `N=C(NC(=O)c1cnc(NC(=O)c2ccccc2OC(F)(F)F)s1)Nc1nc2ccccc2[nH]1` [compound 50], the “Biological activity (inhibition in the NF-κB inflammation assay)” value is given as “+++ (“+++” stands for 90-100% inhibition)”.

For `O=C(Nc1nc(C(=O)N2CCN(c3cccc(C(F)(F)F)c3)CC2)cs1)Nc1ccccc1OC(F)(F)F` [compound 55], the “Biological activity (inhibition in the NF-κB inflammation assay)” value was “+++ (“+++” stands for 90-100% inhibition)”. To `O=C(Nc1nc(C(=O)N2CCN(C(c3ccccc3)c3ccccc3)CC2)cs1)c1ccccc1OC(F)(F)F` [compound 58] belongs “++ (“++” means 80-90%)”.

Turning to `O=C(c1cc(C(F)(F)F)cc(C(F)(F)F)c1)N1CCN(c2nc(C(=O)N3CCN(c4cccc(C(F)(F)F)c4)CC3)cs2)CC1` [compound 59], the “Biological activity (inhibition in the NF-κB inflammation assay)” value is listed as “+ (“+” stands for 50-80% inhibition)”. Turning to `O=C(c1ccc(C(F)(F)F)c(F)c1)N1CCN(c2nc(C(=O)N3CCN(c4cccc(C(F)(F)F)c4)CC3)cs2)CC1` [compound 60], the “Biological activity (inhibition in the NF-κB inflammation assay)” value is “+++ (“+++” stands for 90-100% inhibition)”. The same measure for `N#Cc1ccc(C(=O)N2CCN(c3nc(C(=O)N4CCN(c5cccc(C(F)(F)F)c5)CC4)cs3)CC2)cc1` [compound 61]: “+++ (“+++” stands for 90-100% inhibition)”; for `N#Cc1ccc(CN2CCN(c3nc(C(=O)N4CCN(c5cccc(C(F)(F)F)c5)CC4)cs3)CC2)cc1` [compound 62]: “+++ (“+++” stands for 90-100% inhibition)”. The same measure for `CC(C)(C)OC(=O)N1CCN(c2nc(C(=O)N3CCN(c4cccc(C(F)(F)F)c4)CC3)cs2)CC1` [compound 63]: “++ (“++” means 80-90%)”. For `O=C(c1csc(N2CCNCC2)n1)N1CCN(c2cccc(C(F)(F)F)c2)CC1` [compound 64], the “Biological activity (inhibition in the NF-κB inflammation assay)” value is recorded as “+ (“+” stands for 50-80% inhibition)”.

For `COc1ccccc1N1CCN(c2nc(C(=O)N3CCN(c4cccc(C(F)(F)F)c4)CC3)cs2)CC1` [compound 65], the “Biological activity (inhibition in the NF-κB inflammation assay)” value is on record as “++ (“++” means 80-90%)”. Turning to `CC(=O)c1ccc(N2CCN(c3nc(C(=O)N4CCN(c5cccc(C(F)(F)F)c5)CC4)cs3)CC2)cc1` [compound 66], the “Biological activity (inhibition in the NF-κB inflammation assay)” value is recorded as “++ (“++” means 80-90%)”. As to `O=C(c1csc(N2CCN(c3cccc(C(F)(F)F)c3)CC2)n1)N1CCN(c2cccc(C(F)(F)F)c2)CC1` [compound 67], the “Biological activity (inhibition in the NF-κB inflammation assay)” value is on record as “+ (“+” stands for 50-80% inhibition)”. The same measure for `O=C(c1csc(N2CCN(c3ccccc3)CC2)n1)N1CCN(c2cccc(C(F)(F)F)c2)CC1` [compound 68]: “+ (“+” stands for 50-80% inhibition)”. In the case of `O=C(c1csc(N2CCN(c3ccc(F)cc3)CC2)n1)N1CCN(c2cccc(C(F)(F)F)c2)CC1` [compound 69], the “Biological activity (inhibition in the NF-κB inflammation assay)” value was “++ (“++” means 80-90%)”. To `N#Cc1ccc(C(=O)N2CCC(c3nc(C(=O)N4CCN(c5cccc(C(F)(F)F)c5)CC4)cs3)CC2)cc1` [compound 70] belongs “++ (“++” means 80-90%)”; to `O=C(c1csc(N2CCN(Cc3ccccc3)CC2)n1)N1CCN(C(c2ccccc2)c2ccccc2)CC1` [compound 71], “+++ (“+++” stands for 90-100% inhibition)”.

For the compound `O=C(c1csc(N2CCN(Cc3ccccc3)CC2)n1)N1CCN(c2cccc(C(F)(F)F)c2)CC1` [compound 72], the “Biological activity (inhibition in the NF-κB inflammation assay)” value was “+++ (“+++” stands for 90-100% inhibition)”.

Consider `O=C(Nc1ccccc1)N1CCC(c2nc(C(=O)N3CCN(c4cccc(C(F)(F)F)c4)CC3)cs2)CC1` [compound 73], for which the “Biological activity (inhibition in the NF-κB inflammation assay)” value was “++ (“++” means 80-90%)”.

For `O=C(Nc1cc(F)cc2c1OCCO2)N1CCC(c2nc(C(=O)N3CCN(c4cccc(C(F)(F)F)c4)CC3)cs2)CC1` [compound 74], the “Biological activity (inhibition in the NF-κB inflammation assay)” value is given as “++ (“++” means 80-90%)”.

As for `O=C(Nc1ccc2c(c1)OCCO2)N1CCC(c2nc(C(=O)N3CCN(c4cccc(C(F)(F)F)c4)CC3)cs2)CC1` [compound 75], the “Biological activity (inhibition in the NF-κB inflammation assay)” value is recorded as “++ (“++” means 80-90%)”.

As for `Cc1cc(NC(=O)N2CCC(c3nc(C(=O)N4CCN(c5cccc(C(F)(F)F)c5)CC4)cs3)CC2)c(C(F)(F)F)o1` [compound 76], the “Biological activity (inhibition in the NF-κB inflammation assay)” value is given as “++ (“++” means 80-90%)”. In the case of `O=C(NCCc1cccs1)N1CCC(c2nc(C(=O)N3CCN(c4cccc(C(F)(F)F)c4)CC3)cs2)CC1` [compound 77], the “Biological activity (inhibition in the NF-κB inflammation assay)” value is given as “+++ (“+++” stands for 90-100% inhibition)”.

Regarding `CC(C)NC(=O)N1CCC(c2nc(C(=O)N3CCN(c4cccc(C(F)(F)F)c4)CC3)cs2)CC1` [compound 78], the “Biological activity (inhibition in the NF-κB inflammation assay)” value is given as “+ (“+” stands for 50-80% inhibition)”.

These data come from patent US8106048B2, “Heterocyclic NF-κB inhibitors” (4SC AG, priority 2004, dated 2012).
